The supplement of paper PMC13380429

Tests used:
Settings in all cases: 72 h
Caco-2 [1] = assay: cell viability relative to DMSO; higher = less toxic
Calu-3 [2] = assay: as above
HepG2 [3] = assay: as above
U2OS [4] = assay: as above
Vero E6 [5] = assay: as above
Caco-2 [6] = assay: relative viability EC50 (midpoint between 100% and the lowest measured viability); higher = less toxic
Calu-3 [7] = assay: as above
HepG2 [8] = assay: as above
U2OS [9] = assay: as above
Vero E6 [10] = assay: as above
Caco-2 [11] = assay: drug sensitivity score (DSS) for viability; higher = more toxic; extreme values may be limits of the assay
Calu-3 [12] = assay: as above
HepG2 [13] = assay: as above
U2OS [14] = assay: as above
Vero E6 [15] = assay: as above

SMILES	cell viability (Caco-2 [1]; 1 nM)	cell viability (Caco-2 [1]; 10 nM)	cell viability (Caco-2 [1]; 100 nM)	cell viability (Caco-2 [1]; 1000 nM)	cell viability (Caco-2 [1]; 10000 nM)	cell viability (Calu-3 [2]; 1 nM)	cell viability (Calu-3 [2]; 10 nM)	cell viability (Calu-3 [2]; 100 nM)	cell viability (Calu-3 [2]; 1000 nM)	cell viability (Calu-3 [2]; 10000 nM)	cell viability (HepG2 [3]; 1 nM)	cell viability (HepG2 [3]; 10 nM)	cell viability (HepG2 [3]; 100 nM)	cell viability (HepG2 [3]; 1000 nM)	cell viability (HepG2 [3]; 10000 nM)	cell viability (U2OS [4]; 1 nM)	cell viability (U2OS [4]; 10 nM)	cell viability (U2OS [4]; 100 nM)	cell viability (U2OS [4]; 1000 nM)	cell viability (U2OS [4]; 10000 nM)	cell viability (Vero E6 [5]; 1 nM)	cell viability (Vero E6 [5]; 10 nM)	cell viability (Vero E6 [5]; 100 nM)	cell viability (Vero E6 [5]; 1000 nM)	cell viability (Vero E6 [5]; 10000 nM)	relative viability EC50 (Caco-2 [6])	relative viability EC50 (Calu-3 [7])	relative viability EC50 (HepG2 [8])	relative viability EC50 (U2OS [9])	relative viability EC50 (Vero E6 [10])	drug sensitivity score (Caco-2 [11])	drug sensitivity score (Calu-3 [12])	drug sensitivity score (HepG2 [13])	drug sensitivity score (U2OS [14])	drug sensitivity score (Vero E6 [15])
CS(=O)(=O)Nc1ccc2oc3c(OC(F)F)ccc(C(=O)Nc4c(Cl)cncc4Cl)c3c2c1 [oglemilast]	108%	101%	92.2%	103%	90.1%	91%	88.4%	100%	92.7%	81.1%	96.1%	87.9%	93.3%	86%	89.8%	97.6%	104%	97%	101%	94.2%	102%	95.9%	96.2%	90.5%	99.8%	> 10 µM	> 10 µM	> 10 µM	> 10 µM	> 10 µM	0	1.3	0.6	0	0
CS(=O)(=O)n1cc2c(n1)CN([C@H]1CO[C@H](c3cc(F)ccc3F)[C@@H](N)C1)C2 [omarigliptin]	92.5%	101%	95.4%	97.5%	106%	98.4%	97.7%	88.4%	108%	100%	103%	106%	101%	99.7%	103%	97.8%	96.8%	94.2%	101%	104%	97.8%	103%	95.5%	98.7%	103%	> 10 µM	> 10 µM	> 10 µM	> 10 µM	> 10 µM	0	0	0	0	0
CC[N+](C)(CC)CCOC(=O)C(O)(c1ccccc1)C1CCCCC1 (stereo not given) [oxyphenonium]	88.6%	98.4%	88.7%	101%	95.6%	92.9%	106%	97.5%	99.2%	87.2%	90.4%	94.1%	98.1%	86.2%	99.4%	97.8%	100%	98.8%	98.3%	96.6%	95.9%	97.2%	100%	99.4%	96.8%	> 10 µM	> 10 µM	> 10 µM	> 10 µM	> 10 µM	0	0.1	0	0	0
O=P(O)(NCCCl)NCCCl [palifosfamide]	94.4%	93.7%	103%	98.4%	93.7%	91.6%	101%	99.4%	98.8%	105%	100%	102%	95.3%	106%	108%	100%	94%	102%	98.9%	97.2%	93.5%	95.9%	91.7%	98.1%	107%	> 10 µM	> 10 µM	> 10 µM	> 10 µM	> 10 µM	0	0	0	0	0
NCCC(O)(P(=O)(O)O)P(=O)(O)O [pamidronate]	87.2%	104%	106%	96%	97.2%	92.7%	111%	100%	98.9%	93.8%	106%	105%	97.5%	108%	106%	98.7%	101%	95.6%	101%	99%	100%	94.8%	96.2%	97.9%	101%	> 10 µM	> 10 µM	> 10 µM	> 10 µM	> 10 µM	0	0	0	0	0
Oc1cc(O)cc(/C=C/c2ccc(O)c(O)c2)c1 [piceatannol]	90.2%	93.7%	101%	96.1%	86%	95.3%	93.5%	90.4%	99.9%	88.9%	98.8%	87.3%	105%	92.7%	97.7%	97.5%	98.2%	94.2%	100%	96.1%	103%	94.1%	94.8%	92.1%	101%	> 10 µM	> 10 µM	> 10 µM	> 10 µM	> 10 µM	0.5	0	0	0	0
Cc1cccc(C)c1NC(=O)CN1CCCCCC1 [pincainide]	94.3%	102%	94.1%	110%	82%	95.1%	96%	99%	98.7%	97.5%	99.2%	106%	118%	104%	106%	97.7%	103%	98%	101%	101%	98.7%	87.8%	95.7%	89.2%	107%	> 10 µM	> 10 µM	> 10 µM	> 10 µM	> 10 µM	0.2	0	0	0	0
